For this assay, the system named is Magensekretion. Put plainly: Gastric secretion in pylorus-ligated conscious female rats after oral dosing. Format: in vivo, Ratten (Stamm: Charles River CD). The conditions noted are these: for Säure gesamt / Säurekonzentration / Menge: pylorus ligation 60 min after dosing; for Säure gesamt / Säurekonzentration: measured 4 h after ligation; for Menge: stomach content measured 4 h after ligation; for Hemmung der Magensekretion: result in words, increasing oral doses of 125, 250 and 500 µmol/kg. Here is the method:
Die Substanzen wurden in 20 %-igem Dimethylsulfoxid gelöst und wachen weiblichen Ratten - (Stamm: Charles River CD) in ansteigenden Dosen von 125, 250 und 500 µmol/kg mit dem einheitlichen Dosierungsvolumen von 20 ml/kg oral appliziert. 60 Minuten später wurden die Tiere einer Pylorusligatur unterzogen. 4 Stunden nach Setzen der Pylorusligatur wurde die Säurekonzentration und der Gesamtsäuregehalt im Magenvolumen der Tiere bestimmt. Die Kontrollgruppe erhielt 20 ml/kg Dimethylsulfoxid bzw. 20 ml/kg destilliertes Wasser.

The values below come from patent EP0201094A2, “Thieno[2,3-d]imidazole derivatives and process for their preparation” (Hafslund Nycomed Pharma Aktiengesellschaft, priority 1985, dated 1986).

`COc1c(C)cnc(C[S+]([O-])c2nc3cc(C(C)=O)sc3[nH]2)c1C` (centres unmarked) [Verbindung A, 5-Acetyl-2-((4-methoxy-3,5-dimethyl-2-pyridyl)-methylsulfinyl)-3H-thieno(2,3-d)imidazol]: the “Hemmung der Magensekretion” value is listed as “signifikante, dosisabhängige Hemmung der Magensekretion”. For the setting “125 µmol/kg oral”, this compound came in with a Säure gesamt of 0.37±0.06 mÄq, a Säurekonzentration of 0.08±0.008 mÄq/ml and a Menge of 4.7 ± 0.4 mL. For the same compound, under “250 µmol/kg oral”, the Säure gesamt was found to be 0.16±0.03 mÄq, the Säurekonzentration was 0.04±0.006 mÄq/ml and the Menge was 3.4 ± 0.3 mL. Also, under “500 µmol/kg oral”, the Säure gesamt is listed as 0.13±0.03 mÄq, the Säurekonzentration is listed as 0.04±0.005 mÄq/ml and the Menge was found to be 3.1 ± 0.4 mL.

In the case of `COc1ccnc(C[S+]([O-])c2nc3ccsc3[nH]2)c1` (centres unmarked) [Verbindung B], the “Hemmung der Magensekretion” value is given as “signifikante, dosisabhängige Hemmung der Magensekretion”. Where the note is “125 µmol/kg oral”, the Säure gesamt is on record as 0.37±0.07 mÄq, the Säurekonzentration came out at 0.08±0.007 mÄq/ml and the Menge worked out at 4.5 ± 0.6 mL. Besides, for the setting “250 µmol/kg oral”, the Säure gesamt turned out to be 0.27±0.05 mÄq, the Säurekonzentration was determined as 0.05±0.004 mÄq/ml and the Menge came out at 5.0 ± 0.6 mL. Where the note is “500 µmol/kg oral”, this compound came in with a Säure gesamt of 0.14±0.02 mÄq, a Säurekonzentration of 0.03±0.004 mÄq/ml and a Menge of 4.5 ± 0.4 mL.
